Results taken from patent US20050283841A1, “Inhibition of protein kinase C-related kinase (PRK) as a treatment for cardiac hypertrophy and heart failure” (priority 2004, published 2005).

Experiments:
PRK [1] = details: Kuwahara et al., 1999; Kondoh et al., 1997; not specific for PRK, also block ROCK; cited from earlier work
PRK [2] = assay: Western blot analysis of PRK phosphorylation status in left ventricular tissue after isoproterenol infusion; format: in vivo; details: rat, 4 days of isoproterenol infusion compared to control saline infusion; anti-phospho-PRK Western blot; *P<0.05
Description: (§1) For isoproterenol infusion, nine to ten-week-old male Sprague-Dawley rats were anesthetized via passive inhalation of 2.0% isoflurane. When a level of surgical anesthesia was reached, an osmotic minipump (Alzet model 2001, Alza Corp., Palo Alto Calif.) containing either vehicle (0.1% ascorbic acid in 0.9% NaCl), or isoproterenol (4.8 mg/kg/d) was subcutaneously implanted into the back between the scapulae followed by closure with 3-0 silk sutures. After 4 days of recovery, animals were sacrificed and left ventricular tissue processed for Western blot analysis as described below. Average heart weight to body weight ratios in isoproterenol versus vehicle-infused rats increased 48% (data not shown).
Immunoblotting analyses. […] Protein concentration was determined by BCA assay (Pierce), and 20 μg of total protein was resolved by SDS-polyacrylamide gel electrophoresis (PAGE) with gradient gels (4 to 20% polyacrylamide; Invitrogen). […] Film images were then scanned and quantified using a digital image analysis system (Alpha Innotech).
PRK phosphorylation is increased with pathological cardiac hypertrophy in vivo. […] PRK phosphorylation is readily detected by Western analysis employing anti-phospho-PRK antibodies.

[3] = Isoproterenol infusion model of pathological cardiac hypertrophy, heart weight to body weight ratio; format: in vivo, Sprague-Dawley rats; details: isoproterenol 4.8 mg/kg/d, subcutaneous osmotic minipump, 4 days; data not shown
Description: as §1

Compound	PRK inhibition (known inhibitor) (PRK [1])	PRK phosphorylation (PRK [2])	Average heart weight to body weight ratios, increase versus vehicle-infused rats [3] [%]
O=S(=O)(c1cccc2cnccc12)N1CCCNCC1 [Fasudil]	characterized as PRK inhibitors	–	–
C[C@@H](N)[C@H]1CC[C@H](C(=O)Nc2ccncc2)CC1 [Y27632]	characterized as PRK inhibitors	–	–
CC(C)NCC(O)c1ccc(O)c(O)c1 (stereo not shown) [isoproterenol]	–	increased	48
